Reference: patent US8318708B2, “Use of vitamin D receptor agonists, ligands, and precursors to treat pancreatic fibrosis” (Salk Institute for Biological Studies, priority 2007, dated 2012)
“Also recorded” adds a separate entry of the source. Read-outs that look alike come from different tables or passages of the source.

Key:
[1] = tested on: primary HSCs; experiment: Illumina array: LPS-treated primary rat HSCs with vitamin D3 or LXR ligand T1317 (Table 3); conditions: co-treatment with LPS; T1317 1 μM, vitamin D3 1 nM
Description: (§2) For Illumina microarray analysis, Illumina TotalPrep RNA Amplification Kit (Ambion; Catalog # IL1791) was used with the manufacturer's instructions for the RNA amplification. […] Essentially, biotinylated cRNA was prepared according to the manufacturer's directions starting with 200 ng total RNA. Hybridization to the Illumina Sentrix RatRef-12 v.1 and Mouse RefSeq version 2 Expression BeadChips (Illumina, Inc., San Diego, Calif.), washing and scanning were performed according to the Illumina BeadStation 500× manual (revision C). […] RNA is isolated using Trizol and the quality/integrity of the total RNA verified using a Bioanalyzer (Agilent).
(§3) Microarray experiments were repeated two times with RNA from two experiments where HSCs were isolated from two different rats and for each condition triplicate samples were used. The “Detection Score” was used to determine expression using the Illumina platform. It is a statistical measure in the BeadStudio software (version 1.5.0.34), which is computed based on the Z-value of a gene relative to the Z-value of the negative controls. The Illumina data were adjusted (“normalized”) using a cubic spline function. […] The expression difference score, DiffScore, takes into account background noise and sample variability. […] Illumina expression arrays utilize gene-specific 50-mer oligonucleotide probes with an average of 30 replicates of each probe bead per individual array.
Isolated primary HSCs were cultured on plastic tissue culture plates for 40 hours prior to treatment with or without vitamin D3 (1 nM) in the presence or absence of 15 ng/ml of LPS for 24 hours. Cells were then harvested, total RNA extracted, and biotin labeled cRNA was prepared for hybridization to Illumina Rat RefSeq version 1 expression arrays. […] The data generated from these arrays was processed using Illumina BeadStudio software to identify gene expression changes between the different samples.

[2] = target: T1, VDR (Homo sapiens, UniProt P11473); experiment: Real-time qPCR of CYP24A1 in human LX-2 cell line; format: cell-based
T1 construct: endogenous in cells; host or cells: human LX-2 hepatic stellate cell line
T1 sequence (P11473 1-427): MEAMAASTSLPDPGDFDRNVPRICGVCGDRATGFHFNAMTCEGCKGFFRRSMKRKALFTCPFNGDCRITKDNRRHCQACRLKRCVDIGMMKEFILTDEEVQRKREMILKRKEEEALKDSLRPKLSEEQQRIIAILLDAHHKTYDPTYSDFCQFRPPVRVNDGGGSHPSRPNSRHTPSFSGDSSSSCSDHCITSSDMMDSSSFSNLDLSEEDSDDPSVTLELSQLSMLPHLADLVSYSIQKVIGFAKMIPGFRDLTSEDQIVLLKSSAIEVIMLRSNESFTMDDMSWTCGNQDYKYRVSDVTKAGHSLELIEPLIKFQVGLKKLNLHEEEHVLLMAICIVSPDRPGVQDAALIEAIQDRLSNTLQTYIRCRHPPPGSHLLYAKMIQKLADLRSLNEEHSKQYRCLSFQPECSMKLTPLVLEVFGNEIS
Description: Human LX-2 cells were grown to 50% confluence in DMEM with 10% FBS in 6-Well plates.
(§1) For qRT-PCR, 500 ng of deoxyribonuclease-treated total RNA was reverse transcribed into cDNA using SuperScript™ III reverse transcriptase essentially as described by the manufacturer (Invitrogen). Quantification of gene of interest mRNA was performed using a Rotor-Gene, RG 6000 (Corbett Research). […] Human B2M primers were from Applied Biosystems.
TGFβ signaling is the key mediator in hepatic fibrogenesis, triggering the transition of HSCs into myofibroblast-like cells and thereby stimulating synthesis of ECM proteins. Thus, TGFβ1 is produced locally in the organ as part of the fibrotic process It has been previously reported that TGFB signaling can influence the activity of VDR-dependent genes, as depicted in (FIG. 8A). In this model, TGFβ activation results in SMAD3 phosphorylation, inducing its translocation into the nucleus where it associates with the ligand bound VDR complex. Phosphorylated SMAD3 acts as a co-activator in the VDR/vitaminD3 complex enhancing the transcriptional potential of VDR on target genes. To understand the interplay between TGFB and VDR signaling pathways, the effects of TGFβ on the well characterized VDR gene target Cyp24α1 were examined.

[3] = tested on: CCl4-induced liver fibrosis; experiment: CCl4-induced liver fibrosis model; format: in vivo, mouse
Source text: . The CCl4 model of chronic liver injury and fibrosis is a well established model of liver injury, inflammation, fibrosis and cirrhosis where CCL4 is metabolized in the liver by CYP2E to a trichloromethyl free radical, which reacts with oxygen to produces a highly reactive peroxytrichloromethyl radical that initiates a damaging cycle of lipid membrane peroxidation and cell death (Leclercq et al., 2001. J. Gastroenterology and Hepatol., 24:51-59). With iterative injury (3 months in mice), extensive scarring develops as indicated by transdifferentiation of HSCs into myofibroblasts, intense myofibroblast proliferation and progressive laying down of ECM components. Following cessation of CCl4 injections, the scarring resolves completely (Kanzler et al., 1999. Am J Physiol., 276(4 Pt 1):G1059-68). These distinct phases of injury, repair, and resolution make this an ideal model for studying both injury and repair mechanisms.
Eight week-old C57BL6 mice were injected with 2 ml/kg body weight of CCl4 i.p. (1:1 v/v in corn oil) or vehicle alone twice weekly for 4 to 12 weeks. Specifically, groups of mice (n=8 per group per time point) are sacrificed at 48 hours (acute injury), 4, 8 and 12 weeks. The animals were terminated after a period of 72 hours after the final CCl4 injection and whole liver, intestine and serum were collected for histological, cytological, biochemical and molecular analyses. […]. Control mice received vehicle alone.
Twice weekly administration of CCl4 for […] caused sustained hepatocyte damage as evidenced by significant increases in serum ALT levels and marked histological changes in liver sections stained with hematoxylin and eosin. Serum ALT, AST and triglyceride (TG) and hepatic lipid peroxides (by TBARs) and TG were measured biochemically. Liver histology was scored blindly by a histopathologist using the Brunt system to determine levels of steatosis and inflammation. Expression levels of key genes involved in BA (Sult2a1) and cholesterol metabolism, transport (Bsep, Ntcp, Mdr1&2, Mrp2&3, Oatp1, 2&4), and synthesis (Srebp2, Cyp7a1) and the NXRs (Lxr, Car, Pxr & Fxr) regulating these genes were determined by real-time quantitative PCR (QPCR) with results normalized to […] (B2M). Protein expression was examined in a select number of genes by Western blotting. Statistical analysis was completed on SPSS v14 using Kruschal Wallis H and Mann-Whitney U tests with p<0.05 considered significant

[4] = tested on: MCD diet model of NASH; experiment: Methionine and choline deficient (MCD) diet model of NASH; format: in vivo, mouse; conditions: mice on MCD diet, 1 IU (25 ng) per gram body weight twice weekly
Source text: The methionine and choline deficient (MCD) diet model of nonalcoholic steatohepatitis (NASH) was originally developed in the mid 1990's to provide a suitable animal model to study the pathogenesis of this common human disease (Weltman et al., 1996. Gastroenterology., 111(6):1645-53). It faithfully reproduces the hepatic steatosis, lobular inflammation and fibrosis progressing over time to more severe fibrosis as observed in the human condition. The mouse version of this model has previously been well characterized and reproducibly mice develop hepatic steatosis, inflammation and extensive perivenular and pericellular fibrosis by 10 weeks.
Male C57black wild-type and the VDR floxed knockout mice are fed ad libitum a high fat, MCD diet (ICN cat no: 960439) for up to 10 weeks. Controls are pair-fed the same diet supplemented with choline chloride (2 g/kg) and DL-methionine (3 g/kg). […]. […] Fibrosis is determined by Sirius Red staining of liver samples. Serum transaminases, lipids and bile acids and liver bile acids are quantified as previously published (Stedman et al., 2006. Proc Natl Acad Sci USA., 103(30):11323-8) and hepatic lipids, glutathione and lipid peroxidation also are analyzed using standard published protocols. Additional tissue portions are snap frozen in liquid nitrogen for later preparation of total RNA for gene expression studies by quantitative PCR and gene arrays.

[5] = target: T2, VDR (Rattus norvegicus, UniProt P13053); conditions: rat SECs, FIG. 11A
T2 sequence (P13053 1-423): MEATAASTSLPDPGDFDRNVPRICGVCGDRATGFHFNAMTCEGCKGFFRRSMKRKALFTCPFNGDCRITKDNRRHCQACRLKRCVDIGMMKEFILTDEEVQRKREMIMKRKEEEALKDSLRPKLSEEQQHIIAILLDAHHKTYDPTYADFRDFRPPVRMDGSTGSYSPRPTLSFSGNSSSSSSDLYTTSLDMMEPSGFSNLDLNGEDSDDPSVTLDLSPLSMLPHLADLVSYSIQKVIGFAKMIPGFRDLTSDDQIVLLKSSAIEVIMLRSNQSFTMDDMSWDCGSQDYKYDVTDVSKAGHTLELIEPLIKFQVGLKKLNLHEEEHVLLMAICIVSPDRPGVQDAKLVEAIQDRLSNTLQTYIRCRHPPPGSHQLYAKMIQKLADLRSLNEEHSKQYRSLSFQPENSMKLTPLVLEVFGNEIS

[6] = target: T2, VDR; conditions: rat Kupffer cells, FIG. 11B
[7] = cited from earlier work
[8] = target: T2, VDR; experiment: Real-time qPCR of VDR target and vitamin D metabolising genes in primary rat HSCs; format: cell-based; set-up: endogenous in cells; host or cells: primary rat hepatic stellate cells (Sprague-Dawley rats)
Description: Activated HSCs were cultured on plastic rather than Matrigel in the same media described above. Kupffer cells (KCs) were cultured in Williams' medium E containing 10% FBS, 2 mM glutamine on plastic plates.
as §1

[9] = tested on: primary HSCs; experiment: Illumina array: TGFβ1-treated primary rat HSCs with vitamin D3 (Table 4); conditions: co-treatment with TGFβ1 100 pM, vitamin D3 1 nM, 24 h
Description: as §2, §3
The Illumina platform described above was used to identify genome-wide effects of vitamin D3-activated VDR on TGFβ signaling in primary rat HSCs. Isolated primary HSCs were cultured on plastic tissue culture plates for 40 hours prior to treatment with or without vitamin D3 (1 nM) in the presence or absence of TGFβ1 (100 pM) for 24 hours. Cells were then harvested, total RNA extracted, and biotin labeled cRNA was prepared for hybridization to an Illumina Rat RefSeq version 1 genome array. […] The data generated from these arrays was processed using Illumina BeadStudio software to identify gene expression changes between the different samples. The vitamin D3 mediated changes on TGFβ1 signaling were identified by comparing TGFβ1 and co-treated TGFβ1/vitamin D3 samples.

Row | Structure (SMILES) | Expression of neutrophil and monocyte attractants [1] | Gene induction of the interleukins IL-10 and 6 [1] | Concentration giving maximal enhancement of CYP24A1 ([2]; LX-2 cells, day 2) | CYP24A1 expression ([2]; culture activated (day 7) LX-2 cells) | Decrease of IL-α expression ([3]; liver, CCl4 mice) | Decrease of MCP-1 expression ([3]; liver, CCl4 mice) | Decrease of TGFβ1 expression ([3]; liver, CCl4 mice) | TNF-α induction ([3]; liver, CCl4 mice) | Production of inflammatory and fibrogenic markers ([3]; mice, CCl4, 1 IU (25 ng) per gram body weight twice weekly, FIG. 9) | Production of inflammatory and fibrogenic markers [4] | VDR activation (Cyp24a1 mRNA expression) [5] | VDR activation (Cyp24a1 mRNA expression) [6] | Levels associated with changes in calcium homeostasis ([7]; isolated reports) | Serum calcidiol with no evidence of adverse effects ([7]; requiring a supply of 250 μg (10,000 IU)) | CYP24A1 expression ([8]; 100 nM (10-fold higher dose), culture activated HSCs, listed as 25(OH) vitamin D3, monohydrate) | Concentration giving maximal induction of CYP24A1 ([8]; day 2 HSCs) | Induction of all collagen genes by TGFβ [9] | Repression of MMP10 by TGFβ [9]
1 | O=S(=O)(c1ccccc1)N(CC(F)(F)F)c1ccc(C(O)(C(F)(F)F)C(F)(F)F)cc1 [T1317] | relatively few changes | markedly decreased |  |  |  |  |  |  |  |  |  |  |  |  |  |  |  | 
2 | C=C1CC[C@H](O)C/C1=C/C=C1\CCC[C@]2(C)[C@@H]([C@H](C)CCCC(C)(C)O)CC[C@@H]12 [calcidiol, (5Z,7E)-9,10-Secocholesta-5,7,10(19)-triene-3β,25-diol monohydrate] |  |  | 100 nM | barely induced | about 50% | about 50% | about 50% | no induction | significantly reduced | reduced | also activated | also activated | exceeding 500 nmol/l | < 140 nmol/L | moderately increasing; also recorded: barely induced | 10 nM |  | 
3 | C=C1CC[C@H](O)C/C1=C/C=C1\CCC[C@]2(C)[C@@H]([C@H](C)CCCC(C)C)CC[C@@H]12 [vitamin D3, reference compound] | preferentially repressed | did not alter |  |  |  |  |  |  |  |  |  |  |  |  |  |  | markedly decreased | inhibited
